Laboratory results taken from article PMC5733478, “A Non-imaging High Throughput Approach to Chemical Library Screening at the Unmodified Adenosine-A3 Receptor in Living Cells” (Frontiers in Pharmacology, 2017).
Where a name gives a salt, the structure may show the parent alone. Read-outs that look alike come from different tables or passages of the source. Values belong to the compound of their own block, whether it stands above or below them.

How the values were obtained:
human A3AR [1] = target: T1, human A3AR (Homo sapiens, UniProt P0DMS8); test: HTS (PHERAstar FS) fluorescent ligand competition binding in live CHO cells, 5 nM AV039 tracer
T1 construct: expressed in transfected cells
T1 sequence (P0DMS8 1-318): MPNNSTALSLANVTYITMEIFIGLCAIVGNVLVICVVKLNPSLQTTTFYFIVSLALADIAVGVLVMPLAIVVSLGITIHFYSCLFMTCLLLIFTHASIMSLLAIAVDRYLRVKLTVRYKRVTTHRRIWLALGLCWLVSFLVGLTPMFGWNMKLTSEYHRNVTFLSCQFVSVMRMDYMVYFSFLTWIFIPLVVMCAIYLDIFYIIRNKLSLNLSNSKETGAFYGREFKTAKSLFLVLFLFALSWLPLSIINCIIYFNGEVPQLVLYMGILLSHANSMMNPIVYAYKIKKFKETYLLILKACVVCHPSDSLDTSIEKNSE
Protocol: (§1) CHO cells stably expressing the A3AR, A1AR, β1AR or β2AR were seeded into the central 60 wells (for high content confocal analysis) or every well (high throughput analysis) of a 96-well clear-bottomed, black-walled plate (Greiner BioOne) and grown to confluency. […] Cells were incubated for 1h at 37°C/5% CO2. Buffer was then removed from each well, cells washed once in HBSS and fresh HBSS added at room temperature. Plates were then immediately subjected to high content or HTS analysis as detailed below.
(§2) High throughput analysis was performed using a PHERAstar FS plate reader (BMG Technologies). […] Optimal focal height was determined automatically and total fluorescence intensity was assessed by taking 81 reads per well.
(§3) Competition binding curves were fitted to the following equation using GraphPad Prism 5 (GraphPad Software): […]
(§4) where [L] is the concentration and KD is the equilibrium dissociation constant of the fluorescent ligand.

human A3AR [2] = target: T1, human A3AR; test: HTS (PHERAstar FS) fluorescent ligand competition binding in live CHO cells, 25 nM CA200645 tracer; conditions: for displacement of CA200645 binding at the A3AR in full inhibition curves: secondary screen of top ten hits, highest concentration 10 μM, affinity not determinable
Protocol: as §1, §2, §3, §4

A3AR = conditions: ref Stoddart et al. ([2012]); cited from earlier work
β2AR = target: T2, β2AR (Homo sapiens, UniProt P07550); test: HTS (PHERAstar FS) fluorescent ligand competition binding in live CHO cells, 10 nM BODIPY-TMR-CGP tracer; conditions: for β2AR % Total binding at 10 μM: 10 μM compound, 10 nM BODIPY-TMR-CGP, mean ± SEM, n=3
T2 construct: expressed in transfected cells
Protocol: as §1, §2, §3, §4

human A3AR [3] = target: T1, human A3AR; test: LOPAC library primary screen: single concentration (10 μM) inhibition of 25 nM CA200645 binding, PHERAstar FS
human A1AR = target: T3, human A1AR (Homo sapiens, UniProt P30542); test: HTS (PHERAstar FS) fluorescent ligand competition binding in live CHO cells, 25 nM CA200645 tracer; conditions: secondary screen of LOPAC hits; for Ki: 25 nM CA200645, mean ± SEM, n=3, read-out: A1AR pKi (selected LOPAC hits) (converted)
T3 construct: expressed in transfected cells
T3 sequence (P30542 1-326): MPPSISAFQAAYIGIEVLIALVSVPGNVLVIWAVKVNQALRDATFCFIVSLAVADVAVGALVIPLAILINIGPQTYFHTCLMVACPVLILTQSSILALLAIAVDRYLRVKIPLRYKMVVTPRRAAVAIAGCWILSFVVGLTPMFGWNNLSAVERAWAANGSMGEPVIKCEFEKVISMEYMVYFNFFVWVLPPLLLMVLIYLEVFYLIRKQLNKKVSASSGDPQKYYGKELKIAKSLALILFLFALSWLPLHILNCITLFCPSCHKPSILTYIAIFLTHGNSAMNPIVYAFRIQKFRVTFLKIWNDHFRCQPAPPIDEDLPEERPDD
Protocol: as §1, §2, §3, §4

A1AR = conditions: cited from earlier work
[4] = secondary screen of LOPAC hits, full inhibition curves, 25 nM CA200645, mean ± SEM, n=3, read-out: A3AR pKi (selected LOPAC hits) (converted)
[5] = % of control wells (1% DMSO and 25 nM CA200645), compounds at 10 µM, whole live cells expressing the A3AR, mean ± SD, three experiments in duplicate

T2 sequence (P07550 whole entry): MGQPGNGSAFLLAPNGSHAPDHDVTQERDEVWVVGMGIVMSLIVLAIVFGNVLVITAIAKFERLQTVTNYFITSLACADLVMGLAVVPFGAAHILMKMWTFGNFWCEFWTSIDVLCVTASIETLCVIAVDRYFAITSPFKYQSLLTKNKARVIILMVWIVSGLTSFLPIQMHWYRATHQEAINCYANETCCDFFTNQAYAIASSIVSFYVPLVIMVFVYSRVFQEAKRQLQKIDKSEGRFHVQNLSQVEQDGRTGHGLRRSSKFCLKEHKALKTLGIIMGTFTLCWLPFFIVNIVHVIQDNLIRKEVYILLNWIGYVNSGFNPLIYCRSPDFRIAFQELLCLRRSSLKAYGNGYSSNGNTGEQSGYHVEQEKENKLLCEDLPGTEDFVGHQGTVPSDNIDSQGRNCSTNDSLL

Compound: Nc1nc(NCCc2ccc(O)cc2)nc2nc(-c3ccco3)nn12 [ZM241385]
Ki (human A3AR [1]; CHO cells expressing A3AR, 5 nM AV039, PHERAstar HTS assay, mean ± SEM, read-out: pKi A3AR AV039 (converted)): 479 nM
Ki (human A3AR [2]; CHO cells expressing A3AR, 25 nM CA200645, PHERAstar HTS assay, mean ± SEM, read-out: pKi A3AR CA200645 (converted)): 234 nM
Literature values (A3AR) (A3AR): 6.74

Compound: CN(C)S(=O)(=O)c1ccc2c(c1)/C(=C/c1cc3c([nH]1)CCCC3)C(=O)N2 [SU 6656]
β2AR % Total binding at 10 μM (β2AR): 128.4 ± 18.4%
% 25 nM CA200645 binding (human A3AR [3]): 17.3 ± 1.8%
Ki (human A3AR [2]; [4]): 676 nM
inhibition of CA200645 binding at the A1AR (human A1AR): only inhibited binding at the highest concentration tested

β2AR % Total binding at 10 μM (β2AR): 102.7 ± 5.1%
% 25 nM CA200645 binding (human A3AR [3]; [5]): 26.5 ± 2.0%
Ki (human A3AR [2]; [4]): 741 nM
Ki (human A1AR): 912 nM
Compound: CC1=C(/C=C/C(C)=C/C=C/C(C)=C/C(=O)Nc2ccc(O)cc2)C(C)(C)CCC1 [Retinoic acid p-hydroxyanilide]

Compound: O=C(Cc1ccccc1)Nc1nc2ccc(Cl)cc2c2nc(-c3ccco3)nn12 [MRS1220]
Literature values (A1AR) (A1AR; A1AR, ref Stoddart et al. ([2012])): 7.14

Compound: CC(=O)c1c(O)c(C)c(O)c(Cc2c(O)c3c(c(C(=O)/C=C/c4ccccc4)c2O)OC(C)(C)C=C3)c1O [rottlerin, reference compound]
% 25 nM CA200645 binding (human A3AR [3]): 22.8 ± 1.4%
displacement of CA200645 binding at the A3AR in full inhibition curves (human A3AR [2]): only displaced the binding of CA200645 at the highest concentration tested

Compound: O=C1Cc2c([nH]c3ccc(Br)cc23)-c2ccccc2N1 [kenpaullone, reference compound]
% 25 nM CA200645 binding (human A3AR [3]): 30.6 ± 6.6%
displacement of CA200645 binding at the A3AR in full inhibition curves (human A3AR [2]): only displaced the binding of CA200645 at the highest concentration tested

Compound: Cn1c(=O)c(-c2c(Cl)cccc2Cl)cc2cnc(Nc3ccc(N4CCOCC4)cc3)nc21 [PD173952, reference compound]
% 25 nM CA200645 binding (human A3AR [3]): 25.6 ± 5.3%
displacement of CA200645 binding at the A3AR in full inhibition curves (human A3AR [2]): only displaced the binding of CA200645 at the highest concentration tested

β2AR % Total binding at 10 μM (β2AR): 95.8 ± 5.5%
% 25 nM CA200645 binding (human A3AR [3]; [5]): 24.6 ± 5.8%
Ki (human A3AR [2]; [4]): 372 nM
Ki (human A1AR): 275 nM
Compound: Oc1ccc(/C=C/c2ccc(/C=C/c3ccc(O)cc3)c(Br)c2)cc1 [K114]

Compound: CA200645
Kd (A1AR; ref Stoddart et al., [2012], read-out: KD of fluorescent ligand at the A1AR): 11 nM

Compound: Nc1nc2ccc(Cl)cc2c2nc(-c3ccco3)nn12 [CGS15943]
Ki (human A3AR [1]): 12.3 nM
β2AR % Total binding at 10 μM (β2AR): 115.4 ± 5.0%
effect on binding of BODIPY-TMR-CGP at the β2AR (β2AR; secondary screen of LOPAC hits): no effect
% Total CA200645 binding (human A3AR [3]): 30.0 ± 3.0%
Ki (human A3AR [2]): 12.3 nM
Literature values (A3AR) (A3AR): 8.18

Compound: Cl.Clc1ccc(Cn2c(CN3CCCC3)nc3ccccc32)cc1 [Clemizole hydrochloride]
% 25 nM CA200645 binding (human A3AR [3]): 99.7 ± 8.2%

Compound: OCc1cc(C(O)CNCCCCCCOCCCCc2ccccc2)ccc1O (centres unmarked) [Salmeterol xinafoate]
% 25 nM CA200645 binding (human A3AR [3]): 92.6 ± 8.3%

Compound: COc1ccc(C(CN(C)C)C2(O)CCCCC2)cc1 (centres unmarked) [Venlafaxine hydrochloride]
% 25 nM CA200645 binding (human A3AR [3]): 97.3 ± 8.5%

Compound: NC[C@H](O)c1ccc(O)c(O)c1.O=C(O)C(O)C(O)C(=O)O (racemic) [(±)-Norepinephrine (+)bitartrate]
% 25 nM CA200645 binding (human A3AR [3]): 87.1 ± 8.1%

% 25 nM CA200645 binding (human A3AR [3]; [5]): 98.5 ± 7.2%
Compound: C=C/C(C)=C/[C@@]1(C)SC(=O)C(C)=C1O [Thiolactomycin]

Compound: Oc1cccc2c(O)nccc12 [1,5-Isoquinolinediol]
% 25 nM CA200645 binding (human A3AR [3]): 97.2 ± 4.1%

Compound: CN(C)CCCC1(c2ccc(F)cc2)OCc2cc(C#N)ccc21 (centres unmarked) [Citalopram hydrobromide]
% 25 nM CA200645 binding (human A3AR [3]): 97.2 ± 4.4%

Compound: NC(Cc1ccc(Cl)cc1)C(=O)O (racemic) [(±)-p-Chlorophenylalanine]
% 25 nM CA200645 binding (human A3AR [3]): 94.9 ± 9.4%

Compound: N=C(N)SCCc1cnc[nH]1 [Imetit dihydrobromide]
% 25 nM CA200645 binding (human A3AR [3]): 99.9 ± 2.2%

Compound: CN(C)[C@@H]1C(O)=C(C(N)=O)C(=O)[C@@]2(O)C(O)=C3C(=O)c4c(O)ccc(Cl)c4[C@@H](O)[C@H]3C[C@@H]12 [Demeclocycline hydrochloride]
% 25 nM CA200645 binding (human A3AR [3]): 98.1 ± 10.5%

Compound: CNCCC(Oc1ccccc1OC)c1ccccc1 (centres unmarked) [Nisoxetine hydrochloride]
% 25 nM CA200645 binding (human A3AR [3]): 97.3 ± 6.5%

Compound: CCN(CC)c1ncnc2c1ncn2[C@@H]1O[C@H](COP(=O)([O-])OP(=O)([O-])C(Br)(Br)P(=O)([O-])O)[C@@H](O)[C@H]1O.[Na+].[Na+].[Na+] [ARL 67156 trisodium salt]
% 25 nM CA200645 binding (human A3AR [3]): 103.2 ± 16.2%
